Source: ChEMBL document CHEMBL3885881, “DrugMatrix”

Organism: Rattus norvegicus
Test: DrugMatrix - Regimen: Daily Repeat
Format: toxicity, organism-based, Sprague-Dawley
Set-up: regimen Daily Repeat, gender Male, age 6-8 weeks
Settings: in vivo, po, route oral GAVAGE, vehicle 100 % WATER; for ABSOLUTE BASOPHIL / ABSOLUTE EOSINOPHIL / ABSOLUTE LYMPHOCYTE / ABSOLUTE MONOCYTE / ABSOLUTE SEGMENTED NEUTROPHIL / BASOPHIL / EOSINOPHIL / ERYTHROCYTE COUNT / HEMATOCRIT / HEMOGLOBIN / LEUKOCYTE COUNT / LYMPHOCYTE / MEAN CORPUSCULAR HEMOGLOBIN / MEAN CORPUSCULAR HEMOGLOBIN CONCENTRATION / MEAN CORPUSCULAR VOLUME / MONOCYTE / NEUTROPHIL / NUCLEATED RED BLOOD CELLS / PLATELET COUNT: tissue Blood; for ALANINE AMINOTRANSFERASE / ALKALINE PHOSPHATASE / ASPARTATE AMINOTRANSFERASE / BLOOD UREA NITROGEN / CARBON DIOXIDE / CHLORIDE / CHOLESTEROL / CREATINE PHOSPHOKINASE / CREATININE / GLUCOSE / LACTATE DEHYDROGENASE / LIPASE / PHOSPHORUS / POTASSIUM / SODIUM / TOTAL BILIRUBIN / TOTAL PROTEIN / URIC ACID: tissue Plasma
[1] = 0 mg/kg, 72 h, dose level Control, time 3 day
[2] = 0 mg/kg, 120 h, dose level Control, time 5 day
[3] = […], 72 h, dose 7.5 mg/Kg, dose level Low, time 3 day
[4] = […], 120 h, dose 7.5 mg/Kg, dose level Low, time 5 day

CNC1=Nc2ccc(Cl)cc2C(c2ccccc2)=[N+]([O-])C1 [CHLORDIAZEPOXIDE]
ABSOLUTE BASOPHIL [1]: 0 CELLS/uL
ABSOLUTE EOSINOPHIL [1]: 40 CELLS/uL
ABSOLUTE LYMPHOCYTE [1]: 13599.5 CELLS/uL
ABSOLUTE MONOCYTE [1]: 239.33 CELLS/uL
ABSOLUTE SEGMENTED NEUTROPHIL [1]: 1021.17 CELLS/uL
BASOPHIL [1]: 0%
EOSINOPHIL [1]: 0.33%
ERYTHROCYTE COUNT [1]: 5.71 x10E6/uL
HEMATOCRIT [1]: 36.35%
HEMOGLOBIN [1]: 14.05 G/DL
LEUKOCYTE COUNT [1]: 14.9 x10E3/uL
LYMPHOCYTE [1]: 91%
MEAN CORPUSCULAR HEMOGLOBIN [1]: 24.62 pg
MEAN CORPUSCULAR HEMOGLOBIN CONCENTRATION [1]: 38.65 G/DL
MEAN CORPUSCULAR VOLUME [1]: 63.7 fL
MONOCYTE [1]: 1.5%
NEUTROPHIL [1]: 7.17%
NUCLEATED RED BLOOD CELLS [1]: 0.33 /100WBC
PLATELET COUNT [1]: 1225.5 x10E3/uL
ALANINE AMINOTRANSFERASE [1]: 48.5 u/L
ALKALINE PHOSPHATASE [1]: 390.83 u/L
ASPARTATE AMINOTRANSFERASE [1]: 89 u/L
BLOOD UREA NITROGEN [1]: 14.83 mg/dL
CARBON DIOXIDE [1]: 24.83 mmol/L
CHLORIDE [1]: 100.83 MEQ/L
CHOLESTEROL [1]: 72.5 mg/dL
CREATINE PHOSPHOKINASE [1]: 503 u/L
CREATININE [1]: 0.2 mg/dL
GLUCOSE [1]: 163 mg/dL
LACTATE DEHYDROGENASE [1]: 316.83 u/L
LIPASE [1]: 9.83 u/L
PHOSPHORUS [1]: 11.57 mg/dL
POTASSIUM [1]: 6.16 MEQ/L
SODIUM [1]: 142.62 MEQ/L
TOTAL BILIRUBIN [1]: 0.2 mg/dL
TOTAL PROTEIN [1]: 5.8 G/DL
URIC ACID [1]: 1.65 mg/dL
ABSOLUTE BASOPHIL [2]: 0 CELLS/uL
ABSOLUTE EOSINOPHIL [2]: 21 CELLS/uL
ABSOLUTE LYMPHOCYTE [2]: 14288.5 CELLS/uL
ABSOLUTE MONOCYTE [2]: 205.33 CELLS/uL
ABSOLUTE SEGMENTED NEUTROPHIL [2]: 968.5 CELLS/uL
BASOPHIL [2]: 0%
EOSINOPHIL [2]: 0.17%
ERYTHROCYTE COUNT [2]: 5.83 x10E6/uL
HEMATOCRIT [2]: 36.53%
HEMOGLOBIN [2]: 14.4 G/DL
LEUKOCYTE COUNT [2]: 15.48 x10E3/uL
LYMPHOCYTE [2]: 92%
MEAN CORPUSCULAR HEMOGLOBIN [2]: 24.72 pg
MEAN CORPUSCULAR HEMOGLOBIN CONCENTRATION [2]: 39.43 G/DL
MEAN CORPUSCULAR VOLUME [2]: 62.68 fL
MONOCYTE [2]: 1.33%
NEUTROPHIL [2]: 6.5%
NUCLEATED RED BLOOD CELLS [2]: 0.17 /100WBC
PLATELET COUNT [2]: 1280.5 x10E3/uL
ALANINE AMINOTRANSFERASE [2]: 50 u/L
ALKALINE PHOSPHATASE [2]: 380.17 u/L
ASPARTATE AMINOTRANSFERASE [2]: 82.67 u/L
BLOOD UREA NITROGEN [2]: 15.33 mg/dL
CARBON DIOXIDE [2]: 27.17 mmol/L
CHLORIDE [2]: 100.33 MEQ/L
CHOLESTEROL [2]: 60.67 mg/dL
CREATINE PHOSPHOKINASE [2]: 441.5 u/L
CREATININE [2]: 0.16 mg/dL
GLUCOSE [2]: 146 mg/dL
LACTATE DEHYDROGENASE [2]: 189.33 u/L
LIPASE [2]: 9.17 u/L
PHOSPHORUS [2]: 11.67 mg/dL
POTASSIUM [2]: 6.86 MEQ/L
SODIUM [2]: 142.33 MEQ/L
TOTAL BILIRUBIN [2]: 0.2 mg/dL
TOTAL PROTEIN [2]: 6.12 G/DL
URIC ACID [2]: 1.82 mg/dL
ABSOLUTE BASOPHIL [3]: 0 CELLS/uL
ABSOLUTE EOSINOPHIL [3]: 54 CELLS/uL
ABSOLUTE LYMPHOCYTE [3]: 12748.67 CELLS/uL
ABSOLUTE MONOCYTE [3]: 258 CELLS/uL
ABSOLUTE SEGMENTED NEUTROPHIL [3]: 2072.67 CELLS/uL
BASOPHIL [3]: 0%
EOSINOPHIL [3]: 0.33%
ERYTHROCYTE COUNT [3]: 5.45 x10E6/uL
HEMATOCRIT [3]: 34.1%
HEMOGLOBIN [3]: 13.23 G/DL
LEUKOCYTE COUNT [3]: 15.13 x10E3/uL
LYMPHOCYTE [3]: 84.33%
MEAN CORPUSCULAR HEMOGLOBIN [3]: 24.3 pg
MEAN CORPUSCULAR HEMOGLOBIN CONCENTRATION [3]: 38.8 G/DL
MEAN CORPUSCULAR VOLUME [3]: 62.57 fL
MONOCYTE [3]: 1.67%
NEUTROPHIL [3]: 13.67%
NUCLEATED RED BLOOD CELLS [3]: 0.33 /100WBC
PLATELET COUNT [3]: 1319 x10E3/uL
ALANINE AMINOTRANSFERASE [3]: 50.33 u/L
ALKALINE PHOSPHATASE [3]: 379.67 u/L
ASPARTATE AMINOTRANSFERASE [3]: 95 u/L
BLOOD UREA NITROGEN [3]: 15.67 mg/dL
CARBON DIOXIDE [3]: 26 mmol/L
CHLORIDE [3]: 101 MEQ/L
CHOLESTEROL [3]: 60.33 mg/dL
CREATINE PHOSPHOKINASE [3]: 360.33 u/L
CREATININE [3]: 0.17 mg/dL
GLUCOSE [3]: 162.33 mg/dL
LACTATE DEHYDROGENASE [3]: 326.33 u/L
LIPASE [3]: 8.67 u/L
PHOSPHORUS [3]: 12.63 mg/dL
POTASSIUM [3]: 7.24 MEQ/L
SODIUM [3]: 142.77 MEQ/L
TOTAL BILIRUBIN [3]: 0.27 mg/dL
TOTAL PROTEIN [3]: 5.87 G/DL
URIC ACID [3]: 2 mg/dL
ABSOLUTE BASOPHIL [4]: 0 CELLS/uL
ABSOLUTE EOSINOPHIL [4]: 0 CELLS/uL
ABSOLUTE LYMPHOCYTE [4]: 13599 CELLS/uL
ABSOLUTE MONOCYTE [4]: 187.67 CELLS/uL
ABSOLUTE SEGMENTED NEUTROPHIL [4]: 813.33 CELLS/uL
BASOPHIL [4]: 0%
EOSINOPHIL [4]: 0%
ERYTHROCYTE COUNT [4]: 5.46 x10E6/uL
HEMATOCRIT [4]: 34.73%
HEMOGLOBIN [4]: 13.83 G/DL
LEUKOCYTE COUNT [4]: 14.6 x10E3/uL
LYMPHOCYTE [4]: 93%
MEAN CORPUSCULAR HEMOGLOBIN [4]: 25.37 pg
MEAN CORPUSCULAR HEMOGLOBIN CONCENTRATION [4]: 39.83 G/DL
MEAN CORPUSCULAR VOLUME [4]: 63.7 fL
MONOCYTE [4]: 1.33%
NEUTROPHIL [4]: 5.67%
NUCLEATED RED BLOOD CELLS [4]: 0 /100WBC
PLATELET COUNT [4]: 1349.33 x10E3/uL
ALKALINE PHOSPHATASE [4]: 303.33 u/L
ASPARTATE AMINOTRANSFERASE [4]: 68.67 u/L
BLOOD UREA NITROGEN [4]: 17.67 mg/dL
CARBON DIOXIDE [4]: 27.33 mmol/L
CHLORIDE [4]: 101.33 MEQ/L
CHOLESTEROL [4]: 63.67 mg/dL
CREATINE PHOSPHOKINASE [4]: 199.33 u/L
CREATININE [4]: 0.15 mg/dL
GLUCOSE [4]: 159.33 mg/dL
LACTATE DEHYDROGENASE [4]: 110 u/L
LIPASE [4]: 8.67 u/L
PHOSPHORUS [4]: 11.87 mg/dL
POTASSIUM [4]: 6.75 MEQ/L
SODIUM [4]: 144.03 MEQ/L
TOTAL BILIRUBIN [4]: 0.23 mg/dL
TOTAL PROTEIN [4]: 5.83 G/DL
URIC ACID [4]: 1.47 mg/dL
